Among the data in ChEMBL document CHEMBL1125373, “Systemic analgesic activity and delta-opioid selectivity in [2,6-dimethyl-Tyr1,D-Pen2,D-Pen5]enkephalin” (J Med Chem, 1992) are ED50 and EC50 values, retold here.

Common to all, as to assay type: functional
Assay [1] has as its system Mus musculus. As to the kind of experiment: In vivo antinociceptive activity in mice by using PBQ writing test after subcutaneous administration. To be noted: sc.
Assay [2] deals with Mus musculus. As to the kind of experiment: In vivo antinociceptive activity in mice by using hot plate test after intracerebroventricular administration. (In general: Thermal pain tests record how soon the animal reacts.)
In assay [3] the test system is Mus musculus. As to the kind of experiment: In vivo antinociceptive activity in mice by using hot plate test after subcutaneous administration. As to conditions: sc.
The species named for assay [4] is Mus musculus. As to the kind of experiment: In Vitro evaluation for the potency for inhibiting the contraction of the electrically stimulated isolated mouse vas deferens.

Turning to `Cc1cc(O)cc(C)c1C[C@H](N)C(=O)N[C@H]1C(=O)NCC(=O)N[C@@H](Cc2ccccc2)C(=O)N[C@@H](C(=O)O)C(C)(C)SSC1(C)C` [listing 1 of 2 here], the ED50 in the assay with Mus musculus [1] worked out at 2.6 mg/kg; in the assay on Mus musculus [2], 0.2 µg; in the assay on Mus musculus [3] it was 33 mg/kg.
Take `CC1(C)SSC(C)(C)[C@@H](NC(=O)[C@@H](N)Cc2ccc(O)cc2)C(=O)NCC(=O)N[C@@H](Cc2ccccc2)C(=O)N[C@H]1C(=O)O`: in the assay with Mus musculus [2], the ED50 amounted to 1.4 µg. The same compound yielded an EC50 in the assay filed under Mus musculus [4] of 12.9 nM.
Take `CN1CC[C@]23c4c5ccc(O)c4O[C@H]2[C@@H](O)C=C[C@H]3[C@H]1C5` [MORPHINE]: the ED50 was 0.2 mg/kg in the assay with Mus musculus [1], 0.6 µg in the assay with Mus musculus [2] and 3.2 mg/kg in the assay with Mus musculus [3].
The compound `Cc1cc(O)cc(C)c1C[C@H](N)C(=O)N[C@H]1C(=O)NCC(=O)N[C@@H](Cc2ccccc2)C(=O)N[C@@H](C(=O)O)C(C)(C)SSC1(C)C` [listing 2 of 2 here] gave an EC50 in the assay filed under Mus musculus [4] of 0.15 nM.

As a reminder, the EC50 is the concentration giving half of the maximal effect. A low value points to an effect from little substance.
